Results: patent US5571524A, “Agent for curing ischemic myocardial disease” (Unitika Ltd., priority 1994, dated 1996)

Legend:
Format in all cases: in vivo
[1] = test system: Mongrel dogs; assay: Coronary blood flow increase effect, nonischemic condition; conditions: for Coronary blood flow: 8-SPT and/or L-NAME alone, before Ap4A, N = 1 - 2
Procedure: (§1) Mongrel dogs weighing 18-22 kg were anesthetized with pentobarbital sodium (30 mg/kg). The trachea was intubated, and the dog was ventilated with room air with oxygen. The chest was opened through the left fifth intercostal space, and the heart was suspended in a pericardial cradle. The left anterior descending coronary artery was cannulated and perfused with blood via the carotid artery through an extracorporeal bypass tube after heparinization (500 units/kg). Coronary blood flow (CBF) was measured with an electromagnetic flow probe attached to the bypass tube, and coronary perfusion pressure (CPP) was monitored at the tip of the coronary arterial cannula. A small, short collecting tube was cannulated into a small coronary vein near the center of the perfused area to sample coronary venous blood. The drained venous blood was collected in a reservoir placed at the level of the left atrium. A high fidelity of left ventricular pressure and its first derivative were measured by a micromanometer (model P-5, Konigsberg Instruments, Inc., Pasadena, Calif.) placed in the left ventricular cavity through the apex. A pair of ultrasonic crystals was placed in the center of the perfused area about 1 cm apart to measure myocardial segment length with an ultrasonic dimension gauge (5 MHz, Schuessler, Cardiff by the Sea, Calif.). End-diastolic length (EDL) was determined at the R wave of the electrocardiogram, and end-systolic length (ESL) was determined at the minimal dP/dt. Fractional shortening was calculated by (EDL-ESL)/EDL as an index of myocardial contractility of the perfused area.
After stabilization, a physiological saline solution […], with the dosage thereof increased to 0.5, 1, 2, 4 and 8 μg/kg/min, and the changes in coronary blood flow were measured in order to assess the coronary blood flow increase effect of Ap4A.
8-sulfophenyltheophylline (hereinafter referred to as 8-SPT) serving as adenosine P1 receptor antagonist with a dose of 25 μg/kg/min was tested.
The above test was also repeated by replacing 8-SPT with N^G -nitro-L-arginine methyl ester (hereinafter referred to as L-NAME) serving as an endothelial-cell-induced nitric oxide (NO) synthesis inhibitor with a dose of 3 μg/kg/min(ic).
The above test was then repeated using 8-SPT and L-NAME in combination.

[2] = test system: Mongrel dogs; assay: Amelioration of myocardial ischemia: coronary blood flow, fractional shortening and perfusion pressure during factitious 1/3 blood flow; conditions: for Myocardial fractional shortening / Coronary blood flow / Coronary perfusion pressure: ischemia (1/3 blood flow); for Myocardial fractional shortening: control 26.9, 1/3 control 5.3; for Coronary blood flow: control 91.3, 1/3 control 21.2; for Coronary perfusion pressure: control 93.0, 1/3 control 57.0
Procedure: as §1
(§2) After stabilization, CPP was decreased with partial occlusion of the bypass tube to the left anterior descending coronary artery such that CBF decreased to one third of the control flow. The low CPP was maintained during this test.
(§3) Blood sampling from coronary veins and coronary arteries was conducted. Then the intracoronary administration of Ap4A was stopped. The lowered coronary perfusion pressure was further maintained for 10 minutes.
(§4) The above test was repeated by replacing Ap4A with adenosine with the dosage thereof being changed to 4, 8 and 16 μg/kg/min.

[3] = test system: Mongrel dogs; assay: Lactate extraction ratio and pH of venous blood during ischemia; conditions: for pH of venous blood / Lactate extraction ratio: ischemia (1/3 blood flow); for pH of venous blood: control 7.46, 1/3 control 7.23; for Lactate extraction ratio: control 26.5, 1/3 control -67.9
Procedure: as §1
Namely, the lactate extraction ratio was obtained by coronary arteriovenous difference in lactate concentration multiplied by 100 and divided by arterial lactate concentration.
as §2, §3, §4
As mentioned previously, in the above-mentioned experimental systems, lactate extraction ratio and pH of venous blood were measured at the time of the intracoronary administration of Ap4A and also at the time of the intracoronary administration of adenosine.

[4] = adenosine 4 μg/kg/min intracoronary
[5] = adenosine 8 μg/kg/min intracoronary
[6] = adenosine 16 μg/kg/min intracoronary

Compound | Coronary blood flow [1] [ml/100 g/min] | inhibition of the effect of adenosine ([1]; 8-SPT 25 μg/kg/min) | Myocardial fractional shortening ([2]; adenosine 4 μg/kg/min) [%] | Coronary blood flow ([2]; adenosine 4 μg/kg/min) [ml/100 g/min] | Coronary perfusion pressure ([2]; adenosine 4 μg/kg/min) [mmHg] | Myocardial fractional shortening ([2]; adenosine 8 μg/kg/min) [%] | Coronary blood flow ([2]; adenosine 8 μg/kg/min) [ml/100 g/min] | Coronary perfusion pressure ([2]; adenosine 8 μg/kg/min) [mmHg] | Myocardial fractional shortening ([2]; adenosine 16 μg/kg/min) [%] | Coronary blood flow ([2]; adenosine 16 μg/kg/min) [ml/100 g/min] | Coronary perfusion pressure ([2]; adenosine 16 μg/kg/min) [mmHg] | changes in coronary blood flow and myocardial fractional shortening ([2]; ischemia, adenosine 4, 8 and 16 μg/kg/min) | amelioration effect on myocardial ischemia ([2]; mongrel dogs in a state of excessive ischemia) | amelioration of lactate extraction ratio and pH ([3]; ischemia) | pH of venous blood [3, 4] | Lactate extraction ratio [3, 4] [%] | pH of venous blood [3, 5] | Lactate extraction ratio [3, 5] [%] | pH of venous blood [3, 6] | Lactate extraction ratio [3, 6] [%]
COC(=O)[C@@H](N)CCCNC(=N)N[N+](=O)[O-] [L-NAME, N^G -nitro-L-arginine methyl ester, reference compound] | 90.3 | – | – | – | – | – | – | – | – | – | – | – | – | – | – | – | – | – | – | –
Cn1c(=O)c2[nH]c(-c3ccc(S(=O)(=O)O)cc3)nc2n(C)c1=O [8-SPT, 8-sulfophenyltheophylline, reference compound] | 93.7 | completely inhibited | – | – | – | – | – | – | – | – | – | – | – | – | – | – | – | – | – | –
Nc1ncnc2c1ncn2[C@@H]1O[C@H](CO)[C@@H](O)[C@H]1O [Adenosine, adenosine] | – | – | 5.9 | 18.2 | 56.0 | 3.9 | 18.2 | 56.0 | 5.3 | 18.2 | 56.0 | no substantial changes in coronary blood flow and myocardial fractional shortening | unaffected | no such amelioration effects | 7.19 | -73.2 | 7.25 | -69.8 | 7.22 | -73.2
